ChEMBL document CHEMBL5321200, “Discovery of the GSH responsive "Y-PROTACs" targeting ALK and CDK4/6 as a potential treatment for cancer” (Eur J Med Chem, 2023)
Active and inactive are the calls of the source. The rule behind the calls is not given here.

Legend:
[1] = system: NCI-H1299; test: Antiproliferative activity against human NCI-H1299 cells assessed as inhibition of cell growth incubated for 3 to 5 days by MTT assay; assay type: functional, cell-based
[2] = system: NCI-H1299; test: Antiproliferative activity against human NCI-H1299 cells assessed as inhibition of cell growth pretreated with GSH followed by compound addition and incubated for 3 to 5 days by MTT assay; assay type: functional, cell-based
[3] = system: NCI-H2228; test: Antiproliferative activity against human NCI-H2228 cells assessed as inhibition of cell growth pretreated with GSH followed by compound addition and incubated for 3 to 5 days by MTT assay; assay type: functional, cell-based
[4] = target: T1, Protein cereblon/Cyclin-dependent kinase 4 (Homo sapiens, UniProt P11802+Q96SW2); test: PROTAC activity at CRBN/CDK4 in human NCI-H2228 cells assessed as reduction in CDK4 protein level by Western blot analysis; assay type: cell-based
T1 sequence (P11802 2-303 limits assumed): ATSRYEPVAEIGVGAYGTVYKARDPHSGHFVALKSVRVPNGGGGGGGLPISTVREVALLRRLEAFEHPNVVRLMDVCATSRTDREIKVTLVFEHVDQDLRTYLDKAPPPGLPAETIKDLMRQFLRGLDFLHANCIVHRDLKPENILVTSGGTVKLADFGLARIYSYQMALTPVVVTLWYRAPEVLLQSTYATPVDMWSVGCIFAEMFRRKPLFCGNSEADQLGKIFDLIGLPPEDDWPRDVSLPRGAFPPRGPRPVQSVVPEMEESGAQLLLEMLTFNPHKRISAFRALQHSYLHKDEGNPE
T1 sequence (Q96SW2 whole entry partner): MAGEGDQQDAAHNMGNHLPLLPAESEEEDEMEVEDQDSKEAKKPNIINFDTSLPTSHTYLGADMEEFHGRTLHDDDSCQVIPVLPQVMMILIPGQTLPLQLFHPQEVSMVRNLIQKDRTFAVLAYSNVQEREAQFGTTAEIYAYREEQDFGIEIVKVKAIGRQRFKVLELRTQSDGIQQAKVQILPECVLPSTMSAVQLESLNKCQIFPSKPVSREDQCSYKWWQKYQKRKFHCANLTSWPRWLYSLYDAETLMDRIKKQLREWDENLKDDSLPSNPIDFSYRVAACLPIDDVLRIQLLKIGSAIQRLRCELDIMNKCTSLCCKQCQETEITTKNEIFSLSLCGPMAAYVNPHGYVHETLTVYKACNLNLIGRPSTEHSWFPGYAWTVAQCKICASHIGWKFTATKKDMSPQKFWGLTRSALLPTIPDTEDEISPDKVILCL

[5] = target: Protein cereblon/Cyclin-dependent kinase 6 (Homo sapiens) (UniProt Q00534+Q96SW2); test: PROTAC activity at CRBN/CDK6 in human NCI-H2228 cells assessed as reduction in CDK6 protein level by Western blot analysis; assay type: cell-based
Sequence of Protein cereblon/Cyclin-dependent kinase 6 (Homo sapiens) (Q00534 whole entry, looked up, the tested form may be a part): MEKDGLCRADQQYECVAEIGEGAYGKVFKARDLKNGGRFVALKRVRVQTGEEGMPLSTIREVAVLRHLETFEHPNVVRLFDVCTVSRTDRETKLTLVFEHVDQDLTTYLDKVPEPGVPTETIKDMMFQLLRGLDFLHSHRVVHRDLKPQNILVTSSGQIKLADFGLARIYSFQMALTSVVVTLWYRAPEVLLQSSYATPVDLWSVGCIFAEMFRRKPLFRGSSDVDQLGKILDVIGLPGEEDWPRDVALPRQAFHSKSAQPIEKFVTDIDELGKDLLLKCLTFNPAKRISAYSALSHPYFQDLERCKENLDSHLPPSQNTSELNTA
Sequence of Protein cereblon/Cyclin-dependent kinase 6 (Homo sapiens) (Q96SW2 whole entry, looked up, the tested form may be a part): as the sequence (Q96SW2 whole entry partner) above

[6] = target: T2, Protein cereblon/ALK tyrosine kinase receptor/Echinoderm microtubule-associated protein-like 4 (Homo sapiens) (UniProt Q9UM73+Q9HC35+Q96SW2); test: PROTAC activity at CRBN/EML4-ALK in human NCI-H3122 cells assessed as reduction in EML4-ALK fusion protein level at 0.1 to 20 uM incubated for 24 hrs in presence of GSH by Western blot analysis; assay type: cell-based; details: dose 0.1-20 µM
T2 sequence (Q96SW2 whole entry partner, the tested form may be a part): as the sequence (Q96SW2 whole entry partner) above
T2 sequence (Q9HC35 whole entry partner, the tested form may be a part): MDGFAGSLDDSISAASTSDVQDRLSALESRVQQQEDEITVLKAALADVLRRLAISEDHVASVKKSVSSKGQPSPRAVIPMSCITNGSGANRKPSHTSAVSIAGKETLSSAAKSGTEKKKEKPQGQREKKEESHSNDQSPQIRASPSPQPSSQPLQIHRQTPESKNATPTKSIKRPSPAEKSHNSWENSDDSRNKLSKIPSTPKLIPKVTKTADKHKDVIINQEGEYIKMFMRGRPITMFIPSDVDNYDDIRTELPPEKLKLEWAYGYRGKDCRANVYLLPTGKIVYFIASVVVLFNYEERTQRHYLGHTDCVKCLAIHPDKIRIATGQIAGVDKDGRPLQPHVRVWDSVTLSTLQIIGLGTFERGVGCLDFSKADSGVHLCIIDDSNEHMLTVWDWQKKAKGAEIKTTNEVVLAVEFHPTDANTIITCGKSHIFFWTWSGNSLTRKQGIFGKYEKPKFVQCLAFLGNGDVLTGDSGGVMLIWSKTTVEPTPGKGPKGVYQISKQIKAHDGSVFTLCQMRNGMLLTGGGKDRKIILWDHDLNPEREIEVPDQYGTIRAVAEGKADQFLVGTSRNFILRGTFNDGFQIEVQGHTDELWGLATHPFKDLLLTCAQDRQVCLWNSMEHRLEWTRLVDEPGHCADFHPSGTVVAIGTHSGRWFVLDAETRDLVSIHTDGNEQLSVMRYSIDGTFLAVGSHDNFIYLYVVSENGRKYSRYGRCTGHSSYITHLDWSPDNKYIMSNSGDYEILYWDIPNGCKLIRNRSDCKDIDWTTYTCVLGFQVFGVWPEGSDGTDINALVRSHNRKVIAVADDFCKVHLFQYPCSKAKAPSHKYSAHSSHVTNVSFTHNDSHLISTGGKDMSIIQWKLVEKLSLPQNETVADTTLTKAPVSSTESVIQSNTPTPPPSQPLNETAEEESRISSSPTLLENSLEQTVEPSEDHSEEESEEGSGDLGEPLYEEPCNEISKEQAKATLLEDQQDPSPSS
T2 sequence (Q9UM73 19-1620 limits assumed): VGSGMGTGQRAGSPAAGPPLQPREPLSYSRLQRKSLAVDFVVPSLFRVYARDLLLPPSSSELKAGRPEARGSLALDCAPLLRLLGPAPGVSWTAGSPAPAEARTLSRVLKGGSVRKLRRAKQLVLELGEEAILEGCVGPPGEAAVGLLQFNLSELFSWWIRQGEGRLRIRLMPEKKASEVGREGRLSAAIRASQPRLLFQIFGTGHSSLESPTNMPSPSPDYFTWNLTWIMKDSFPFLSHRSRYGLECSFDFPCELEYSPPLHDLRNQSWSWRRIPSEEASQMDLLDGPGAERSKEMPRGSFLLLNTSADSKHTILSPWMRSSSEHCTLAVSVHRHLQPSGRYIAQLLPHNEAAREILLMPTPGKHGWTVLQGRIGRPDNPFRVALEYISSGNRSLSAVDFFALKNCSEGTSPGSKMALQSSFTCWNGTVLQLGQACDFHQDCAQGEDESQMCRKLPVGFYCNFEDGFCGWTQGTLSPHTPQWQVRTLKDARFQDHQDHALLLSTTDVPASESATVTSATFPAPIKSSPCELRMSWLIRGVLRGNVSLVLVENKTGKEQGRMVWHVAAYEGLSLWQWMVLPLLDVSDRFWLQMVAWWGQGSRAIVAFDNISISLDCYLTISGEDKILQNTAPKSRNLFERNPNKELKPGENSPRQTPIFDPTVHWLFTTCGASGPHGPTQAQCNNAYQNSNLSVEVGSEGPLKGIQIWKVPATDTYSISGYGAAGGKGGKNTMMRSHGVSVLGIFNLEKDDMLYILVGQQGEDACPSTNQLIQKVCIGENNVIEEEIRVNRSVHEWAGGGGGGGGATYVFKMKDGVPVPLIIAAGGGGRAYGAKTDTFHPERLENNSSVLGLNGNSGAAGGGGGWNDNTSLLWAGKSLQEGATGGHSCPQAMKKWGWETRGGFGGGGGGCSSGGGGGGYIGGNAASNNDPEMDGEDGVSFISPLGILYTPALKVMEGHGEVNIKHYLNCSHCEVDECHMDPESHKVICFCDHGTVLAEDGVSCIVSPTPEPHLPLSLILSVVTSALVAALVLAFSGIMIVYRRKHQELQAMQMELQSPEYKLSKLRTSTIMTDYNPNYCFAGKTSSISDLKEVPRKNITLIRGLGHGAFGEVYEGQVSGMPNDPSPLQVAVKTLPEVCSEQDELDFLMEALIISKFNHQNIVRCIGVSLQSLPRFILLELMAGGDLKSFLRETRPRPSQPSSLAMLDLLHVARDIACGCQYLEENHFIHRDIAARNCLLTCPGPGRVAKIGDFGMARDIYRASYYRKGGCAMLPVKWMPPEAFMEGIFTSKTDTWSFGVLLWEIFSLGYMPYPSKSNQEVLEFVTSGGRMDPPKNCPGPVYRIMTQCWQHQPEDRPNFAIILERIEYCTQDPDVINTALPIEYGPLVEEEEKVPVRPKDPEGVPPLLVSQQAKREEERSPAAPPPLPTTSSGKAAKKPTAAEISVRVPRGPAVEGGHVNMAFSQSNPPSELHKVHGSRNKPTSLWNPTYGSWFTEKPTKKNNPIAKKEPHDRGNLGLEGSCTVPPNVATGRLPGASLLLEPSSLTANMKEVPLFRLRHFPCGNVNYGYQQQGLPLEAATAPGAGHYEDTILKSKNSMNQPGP

[7] = target: T2, Protein cereblon/ALK tyrosine kinase receptor/Echinoderm microtubule-associated protein-like 4 (Homo sapiens); test: PROTAC activity at CRBN/EML4-ALK in human L02 cells assessed as reduction in ALK protein level at 1 to 20 uM incubated for 24 hrs by Western blot analysis; assay type: cell-based; details: dose 1-20 µM
[8] = target: T2, Protein cereblon/ALK tyrosine kinase receptor/Echinoderm microtubule-associated protein-like 4 (Homo sapiens); test: PROTAC activity at CRBN/EML4-ALK in human L02 cells assessed as reduction in ALK protein level at 1 to 20 uM incubated for 24 hrs in presence of GSH by Western blot analysis; assay type: cell-based; details: dose 1-20 µM
[9] = target: T1, Protein cereblon/Cyclin-dependent kinase 4; test: PROTAC activity at CRBN/CDK4 in human L02 cells assessed as reduction in CDK4 protein level at 1 to 20 uM incubated for 24 hrs in presence of GSH by Western blot analysis; assay type: cell-based; details: dose 1-20 µM
[10] = target: ALK tyrosine kinase receptor (Homo sapiens) (UniProt Q9UM73); test: Inhibition of ALK (unknown origin) at 1 uM by LANCE Ultra TR-FRET assay relative to control
Sequence of ALK tyrosine kinase receptor (Homo sapiens) (Q9UM73 19-1620 limits assumed): as above

[11] = target: Cyclin-dependent kinase 4 (Homo sapiens) (UniProt P11802); test: Inhibition of CDK4 (unknown origin) at 1 uM by LANCE Ultra TR-FRET assay relative to control
Sequence of Cyclin-dependent kinase 4 (Homo sapiens) (P11802 whole entry): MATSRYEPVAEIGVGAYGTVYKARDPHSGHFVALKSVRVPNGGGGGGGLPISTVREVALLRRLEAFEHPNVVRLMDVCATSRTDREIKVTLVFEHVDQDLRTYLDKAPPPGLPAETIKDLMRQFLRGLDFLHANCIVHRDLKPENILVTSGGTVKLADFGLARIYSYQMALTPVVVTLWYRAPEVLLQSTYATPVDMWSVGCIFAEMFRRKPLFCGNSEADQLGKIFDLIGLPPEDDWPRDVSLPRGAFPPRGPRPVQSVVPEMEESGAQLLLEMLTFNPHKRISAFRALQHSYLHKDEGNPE

[12] = Stability of the compound in PBS buffer incubated upto 24 hrs in the presence of GSH by LC-MS/MS analysis; assay type: physicochemical
[13] = Stability of the compound in mouse plasma assessed as cleavage to metabolites measured after 4 hrs by LC-MS/MS analysis relative to control; assay type: ADME, cell-free
[14] = target: Protein cereblon/ALK tyrosine kinase receptor/Echinoderm microtubule-associated protein-like 4 (Homo sapiens, UniProt Q96SW2+Q9HC35+Q9UM73); test: PROTAC activity at CRBN/EML4-ALK in human NCI-H3122 cells assessed as reduction in EML4-ALK fusion protein level incubated for 24 hrs by Western blot analysis; assay type: cell-based
[15] = target: T2, Protein cereblon/ALK tyrosine kinase receptor/Echinoderm microtubule-associated protein-like 4 (Homo sapiens); test: PROTAC activity at CRBN/EML4-ALK in human NCI-H2228 cells assessed as reduction in EML4-ALK fusion protein level incubated for 24 hrs by Western blot analysis; assay type: cell-based
[16] = target: T1, Protein cereblon/Cyclin-dependent kinase 4; test: PROTAC activity at CRBN/CDK4 in human NCI-H3122 cells assessed as induction of CDK4 protein degradation at 5 uM measured after 16 hrs by Western blot analysis; assay type: cell-based
[17] = target: T2, Protein cereblon/ALK tyrosine kinase receptor/Echinoderm microtubule-associated protein-like 4 (Homo sapiens); test: PROTAC activity at CRBN/EML4-ALK in human NCI-H3122 cells assessed as downregulation of phosphorylated STAT3 level by Western blot analysis; assay type: cell-based
[18] = target: T2, Protein cereblon/ALK tyrosine kinase receptor/Echinoderm microtubule-associated protein-like 4 (Homo sapiens); test: PROTAC activity at CRBN/EML4-ALK in human NCI-H3122 cells assessed as reduction in EML4-ALK fusion protein level at 5 uM incubated for 48 hrs followed by compound washout and measured within 16 hrs by Western blot analysis; assay type: cell-based
[19] = system: NCI-H3122; test: Cell cycle arrest in human NCI-H3122 cells assessed as accumulation of cells at G0/G1 phase at 2.5 uM incubated for 24 hrs by propidium iodide staining based flow cytometric analysis (reference value: 48.68%); assay type: functional
[20] = system: NCI-H3122; test: Cell cycle arrest in human NCI-H3122 cells assessed as G2/M phase cells at 0.312 uM incubated for 24 hrs by propidium iodide staining based flow cytometric analysis (reference value: 20.89%); assay type: functional
[21] = system: NCI-H3122; test: Induction of apoptosis in human NCI-H3122 cells assessed as viable cells at 0.625 uM incubated for 48 hrs by Annexin V-FITC/propidium iodide staining based flow cytometric analysis (reference value: 95.66%); assay type: functional; details: read-out: Activity
[22] = system: NCI-H3122; test: Induction of apoptosis in human NCI-H3122 cells assessed as viable cells at 1.25 uM incubated for 48 hrs by Annexin V-FITC/propidium iodide staining based flow cytometric analysis (reference value: 95.66%); assay type: functional; details: read-out: Activity
[23] = system: NCI-H3122; test: Induction of apoptosis in human NCI-H3122 cells assessed as viable cells at 2.5 uM incubated for 48 hrs by Annexin V-FITC/propidium iodide staining based flow cytometric analysis (reference value: 95.66%); assay type: functional; details: read-out: Activity
[24] = system: NCI-H3122; test: Induction of apoptosis in human NCI-H3122 cells assessed as early apoptotic cells at 2.5 uM incubated for 48 hrs by Annexin V-FITC/propidium iodide staining based flow cytometric analysis (reference value: 0.71%); assay type: functional
[25] = system: NCI-H3122; test: Induction of apoptosis in human NCI-H3122 cells assessed as late apoptotic cells at 0.625 uM incubated for 48 hrs by Annexin V-FITC/propidium iodide staining based flow cytometric analysis (reference value: 3.06%); assay type: functional
[26] = system: NCI-H3122; test: Induction of apoptosis in human NCI-H3122 cells assessed as necrotic cells at 1.25 uM incubated for 48 hrs by Annexin V-FITC/propidium iodide staining based flow cytometric analysis (reference value: 0.57%); assay type: functional
[27] = system: NCI-H3122; test: Induction of apoptosis in human NCI-H3122 cells assessed as total apoptotic cells at 2.5 uM incubated for 48 hrs by Annexin V-FITC/propidium iodide staining based flow cytometric analysis relative to control; assay type: functional
[28] = system: NCI-H3122; test: Antitumor activity against human NCI-H3122 cells xenografted in BALB/c nude mouse assessed as tumor growth inhibition at 75 mg/kg, IG administered once daily for 18 days and measured after 12 hrs of last dose relative to control; assay type: functional; details: NCI-H3122, po, time 444 hrs, read-out: TGI
[29] = system: NCI-H3122; test: Antitumor activity against human NCI-H3122 cells xenografted in BALB/c nude mouse assessed as tumor growth inhibition at 50 mg/kg, IG administered once daily for 18 days and measured after 12 hrs of last dose relative to control; assay type: functional; details: NCI-H3122, po, time 444 hrs, read-out: TGI
[30] = Toxicity in BALB/c nude mouse xenografted with human NCI-H3122 cells assessed as effect on kidney function at 75 mg/kg, IG administered once daily for 18 days by H and E staining based assay; assay type: organism-based; details: in vivo, po, 432 h, time 18 day

- IC50 [1]: 21.2 µM
- IC50 [2]: 4.73 µM
- IC50 [3]: 1.76 µM
- Activity [4]: Active
- Activity [5]: inactive
- Activity [6]: Active
- Activity [7]: Active
- Activity [8]: Active
- Activity [9]: inactive
- inhibition [10]: 96.4%
- inhibition [11]: 80.2%
- Stability [12]: Stable
- Drug degradation [13]: 30%
- EC50 [14]: 2.83 µM
- Activity [15]: Active
- Activity [16]: Active
- Activity [17]: Active
- Activity [18]: Active
SMILES: CC(=O)c1c(C)c2cnc(Nc3ccc(N4CCN(CC(=O)NCCSSCCN(CC(=O)NCCNc5cccc6c5C(=O)N(C5CCC(=O)NC5=O)C6=O)C(=O)CCCCCCC(=O)N5CCC(c6cc(OC(C)C)c(Nc7ncc(Cl)c(Nc8ccccc8S(=O)(=O)C(C)C)n7)cc6C)CC5)CC4)cn3)nc2n(C2CCCC2)c1=O (stereo not given)
- Activity [19]: 81.72%
- Activity [20]: 18.82%
- viability at 0.625 µM [21]: 88.9%
- viability at 1.25 µM [22]: 86.6%
- viability at 2.5 µM [23]: 81.8%
- Activity [24]: 1.35%
- Activity [25]: 8.32%
- Activity [26]: 1.91%
- Activity [27]: 17.2%
- inhibition in vivo at 75 mg/kg [28]: 60.5%
- inhibition in vivo at 50 mg/kg [29]: 54.8%
- Activity [30]: Non-Toxic
